Source: PMC6804253, “Predicting and Experimentally Validating Hot-Spot Residues at Protein–Protein Interfaces” (ACS Chemical Biology, 2019)
Where a chain is given by its changes, count along the chain named. Read-outs that look alike come from different tables or passages of the source.

How the values were obtained:
[1] = test system: PPIs of the SKEMPI data set (by PDBID); test: SKEMPI experimental ΔΔG, single mutations to alanine; type: binding; conditions: for sk_class: class of the SKEMPI experimental ΔΔG
[2] = test system: PPIs of the SKEMPI data set (by PDBID); conditions: ref SKEMPI, cited from earlier work; for sk_ddG_kJ (SKEMPI experimental ΔΔG) / sk_ddG_kJ (SKEMPI experimental ΔΔG, mutation to alanine) / sk_ddG_kJ: single mutation to alanine; for sk_ddG_kJ (SKEMPI experimental ΔΔG, mutation to alanine): r_group DERKH; for sk_ddG_kJ (SKEMPI experimental ΔΔG of binding, mutation to alanine): single mutation to alanine in the complex of the given PDBID; for sk_ddG_kJ: SKEMPI experimental ΔΔG of binding; for sk_class: class of the SKEMPI experimental ΔΔG
[3] = complex given by PDBID, mutation by mut_pdb
[4] = class by ΔΔG threshold 4.184 kJ/mol, ref SKEMPI
[5] = PPI given by PDBID, sheet sortedByGroup
[6] = Positive / Neutral / Negative by ΔΔG threshold 4.184 kJ/mol, ref SKEMPI
[7] = class by the 4.184 kJ/mol threshold, r_group DERKH
[8] = complex by PDBID, sheet sortedByGroup

1A22 NA63A
sk_class [1]: Neutral (neutral (little effect) 4.184 kJ/mol < ΔΔG > −4.184 kJ/mol)
sk_ddG_kJ (SKEMPI experimental ΔΔG) [2, 3]: 1.26 kJ

1A4Y RB5A
sk_class (class of the SKEMPI experimental ΔΔG) [1, 4]: Positive (positive (a hot residue) ΔΔG ≥ 4.184 kJ/mol)
sk_ddG_kJ (SKEMPI experimental ΔΔG, mutation to alanine) [2, 5]: 9.67 kJ

1A22 KA168A
sk_class (class of the SKEMPI experimental ΔΔG) [1, 4]: Neutral (neutral (little effect) 4.184 kJ/mol < ΔΔG > −4.184 kJ/mol)
sk_ddG_kJ (SKEMPI experimental ΔΔG, mutation to alanine) [2, 5]: -0.84 kJ

1A22 RA183A
sk_class (class of the SKEMPI experimental ΔΔG) [1, 4]: Neutral (neutral (little effect) 4.184 kJ/mol < ΔΔG > −4.184 kJ/mol)
sk_ddG_kJ (SKEMPI experimental ΔΔG, mutation to alanine) [2, 5]: 2.09 kJ

1A22 VA180A
sk_class (class of the SKEMPI experimental ΔΔG) [1, 6]: Neutral (neutral (little effect) 4.184 kJ/mol < ΔΔG > −4.184 kJ/mol)
sk_ddG_kJ (SKEMPI experimental ΔΔG of binding, mutation to alanine) [2]: 0.00 kJ

1A22 SA57A
sk_class [1]: Neutral (neutral (little effect) 4.184 kJ/mol < ΔΔG > −4.184 kJ/mol)
sk_ddG_kJ (SKEMPI experimental ΔΔG) [2, 3]: 0.84 kJ

1A22 KA172A
sk_class (class of the SKEMPI experimental ΔΔG) [1, 4]: Positive (positive (a hot residue) ΔΔG ≥ 4.184 kJ/mol)
sk_ddG_kJ (SKEMPI experimental ΔΔG, mutation to alanine) [2, 5]: 8.37 kJ

1A22 KA70A
sk_class (class of the SKEMPI experimental ΔΔG) [1, 4]: Neutral (neutral (little effect) 4.184 kJ/mol < ΔΔG > −4.184 kJ/mol)
sk_ddG_kJ (SKEMPI experimental ΔΔG, mutation to alanine) [2, 5]: 2.18 kJ

1A22 RA8A
sk_class (class of the SKEMPI experimental ΔΔG) [1, 4]: Neutral (neutral (little effect) 4.184 kJ/mol < ΔΔG > −4.184 kJ/mol)
sk_ddG_kJ (SKEMPI experimental ΔΔG, mutation to alanine) [2, 5]: 0.84 kJ

1A4Y HB13A
sk_class (class of the SKEMPI experimental ΔΔG) [1, 4]: Neutral (neutral (little effect) 4.184 kJ/mol < ΔΔG > −4.184 kJ/mol)
sk_ddG_kJ (SKEMPI experimental ΔΔG, mutation to alanine) [2, 5]: -1.42 kJ

1A22 RA64A
sk_class (class of the SKEMPI experimental ΔΔG) [1, 4]: Positive (positive (a hot residue) ΔΔG ≥ 4.184 kJ/mol)
sk_ddG_kJ (SKEMPI experimental ΔΔG, mutation to alanine) [2, 5]: 6.69 kJ

1GC1 VC86A
sk_class (class of SKEMPI experimental ΔΔG) [1, 4]: Neutral (neutral (little effect) 4.184 kJ/mol < ΔΔG > −4.184 kJ/mol)
sk_ddG_kJ (SKEMPI experimental ΔΔG) ([2]; PPI given by PDBID, sheet sortedByGroup, r_group FAMILYVW): -0.29 kJ

1A22 NA12A
sk_class [1]: Neutral (neutral (little effect) 4.184 kJ/mol < ΔΔG > −4.184 kJ/mol)
sk_ddG_kJ (SKEMPI experimental ΔΔG) [2, 3]: 0.42 kJ

1A4Y RB31A
sk_class (class of the SKEMPI experimental ΔΔG) [1, 4]: Neutral (neutral (little effect) 4.184 kJ/mol < ΔΔG > −4.184 kJ/mol)
sk_ddG_kJ (SKEMPI experimental ΔΔG, mutation to alanine) [2, 5]: 1.05 kJ

1A22 FA25A
sk_class (class of the SKEMPI experimental ΔΔG) [1, 6]: Neutral (neutral (little effect) 4.184 kJ/mol < ΔΔG > −4.184 kJ/mol)
sk_ddG_kJ (SKEMPI experimental ΔΔG of binding, mutation to alanine) [2]: -1.72 kJ

1A22 RA178A
sk_class (class of the SKEMPI experimental ΔΔG) [1, 4]: Positive (positive (a hot residue) ΔΔG ≥ 4.184 kJ/mol)
sk_ddG_kJ (SKEMPI experimental ΔΔG, mutation to alanine) [2, 5]: 10.04 kJ

1A22 RA19A
sk_class (class of the SKEMPI experimental ΔΔG) [1, 4]: Neutral (neutral (little effect) 4.184 kJ/mol < ΔΔG > −4.184 kJ/mol)
sk_ddG_kJ (SKEMPI experimental ΔΔG, mutation to alanine) [2, 5]: 0.21 kJ

1A22 EA186A
sk_class (class of the SKEMPI experimental ΔΔG) [1, 4]: Neutral (neutral (little effect) 4.184 kJ/mol < ΔΔG > −4.184 kJ/mol)
sk_ddG_kJ (SKEMPI experimental ΔΔG, mutation to alanine) [2, 5]: 0.00 kJ

1A4Y RB33A
sk_class ([1]; ref SKEMPI): Neutral (neutral (little effect) 4.184 kJ/mol < ΔΔG > −4.184 kJ/mol)
sk_ddG_kJ ([2]; complex by PDBID): 1.38 kJ

1A22 SA55A
sk_class [1]: Neutral (neutral (little effect) 4.184 kJ/mol < ΔΔG > −4.184 kJ/mol)
sk_ddG_kJ (SKEMPI experimental ΔΔG) [2, 3]: 0.46 kJ

1A22 SA184A
sk_class [1]: Neutral (neutral (little effect) 4.184 kJ/mol < ΔΔG > −4.184 kJ/mol)
sk_ddG_kJ (SKEMPI experimental ΔΔG) [2, 3]: -0.21 kJ

1GC1 KC8A
sk_class (class of the SKEMPI experimental ΔΔG) [1, 7]: Neutral (neutral (little effect) 4.184 kJ/mol < ΔΔG > −4.184 kJ/mol)
sk_ddG_kJ (SKEMPI experimental ΔΔG, mutation to alanine) [2, 8]: 0.46 kJ

1GC1 DC53A
sk_class (class of the SKEMPI experimental ΔΔG) [1, 7]: Neutral (neutral (little effect) 4.184 kJ/mol < ΔΔG > −4.184 kJ/mol)
sk_ddG_kJ (SKEMPI experimental ΔΔG, mutation to alanine) [2, 8]: 1.26 kJ

1A22 DA171A
sk_class (class of the SKEMPI experimental ΔΔG) [1, 4]: Neutral (neutral (little effect) 4.184 kJ/mol < ΔΔG > −4.184 kJ/mol)
sk_ddG_kJ (SKEMPI experimental ΔΔG, mutation to alanine) [2, 5]: 3.35 kJ

1A22 FA191A
sk_class (class of the SKEMPI experimental ΔΔG) [1, 6]: Neutral (neutral (little effect) 4.184 kJ/mol < ΔΔG > −4.184 kJ/mol)
sk_ddG_kJ (SKEMPI experimental ΔΔG of binding, mutation to alanine) [2]: 0.79 kJ

1A22 QA68A
sk_class [1]: Neutral (neutral (little effect) 4.184 kJ/mol < ΔΔG > −4.184 kJ/mol)
sk_ddG_kJ (SKEMPI experimental ΔΔG) [2, 3]: 2.51 kJ

1A22 LA45A
sk_class (class of the SKEMPI experimental ΔΔG) [1, 6]: Positive (positive (a hot residue) ΔΔG ≥ 4.184 kJ/mol)
sk_ddG_kJ (SKEMPI experimental ΔΔG of binding, mutation to alanine) [2]: 5.02 kJ

1GC1 RC59A
sk_class (class of the SKEMPI experimental ΔΔG) [1, 7]: Positive (positive (a hot residue) ΔΔG ≥ 4.184 kJ/mol)
sk_ddG_kJ (SKEMPI experimental ΔΔG, mutation to alanine) [2, 8]: 4.94 kJ

1A22 HA21A
sk_class (class of the SKEMPI experimental ΔΔG) [1, 4]: Neutral (neutral (little effect) 4.184 kJ/mol < ΔΔG > −4.184 kJ/mol)
sk_ddG_kJ (SKEMPI experimental ΔΔG, mutation to alanine) [2, 5]: 0.84 kJ

1A22 CA182A
sk_class [1]: Positive (positive (a hot residue) ΔΔG ≥ 4.184 kJ/mol)
sk_ddG_kJ (SKEMPI experimental ΔΔG) [2, 3]: 4.23 kJ

1A22 TA175A
sk_class [1]: Positive (positive (a hot residue) ΔΔG ≥ 4.184 kJ/mol)
sk_ddG_kJ (SKEMPI experimental ΔΔG) [2, 3]: 8.37 kJ

1GC1 DC10A
sk_class (class of the SKEMPI experimental ΔΔG) [1, 7]: Neutral (neutral (little effect) 4.184 kJ/mol < ΔΔG > −4.184 kJ/mol)
sk_ddG_kJ (SKEMPI experimental ΔΔG, mutation to alanine) [2, 8]: 0.00 kJ

1A22 RA16A
sk_class (class of the SKEMPI experimental ΔΔG) [1, 4]: Neutral (neutral (little effect) 4.184 kJ/mol < ΔΔG > −4.184 kJ/mol)
sk_ddG_kJ (SKEMPI experimental ΔΔG, mutation to alanine) [2, 5]: 1.00 kJ

1A22 VA185A
sk_class (class of the SKEMPI experimental ΔΔG) [1, 6]: Neutral (neutral (little effect) 4.184 kJ/mol < ΔΔG > −4.184 kJ/mol)
sk_ddG_kJ (SKEMPI experimental ΔΔG of binding, mutation to alanine) [2]: 3.64 kJ

1A22 QA29A
sk_class [1]: Neutral (neutral (little effect) 4.184 kJ/mol < ΔΔG > −4.184 kJ/mol)
sk_ddG_kJ (SKEMPI experimental ΔΔG) [2, 3]: -2.51 kJ

1A4Y HB84A
sk_class ([1]; ref SKEMPI): Neutral (neutral (little effect) 4.184 kJ/mol < ΔΔG > −4.184 kJ/mol)
sk_ddG_kJ ([2]; complex by PDBID): 0.71 kJ

1A22 SA71A
sk_class [1]: Neutral (neutral (little effect) 4.184 kJ/mol < ΔΔG > −4.184 kJ/mol)
sk_ddG_kJ (SKEMPI experimental ΔΔG) [2, 3]: 1.72 kJ

1GC1 KC35A
sk_class (class of the SKEMPI experimental ΔΔG) [1, 7]: Neutral (neutral (little effect) 4.184 kJ/mol < ΔΔG > −4.184 kJ/mol)
sk_ddG_kJ (SKEMPI experimental ΔΔG, mutation to alanine) [2, 8]: 1.34 kJ

1A22 FA54A
sk_class (class of the SKEMPI experimental ΔΔG) [1, 6]: Neutral (neutral (little effect) 4.184 kJ/mol < ΔΔG > −4.184 kJ/mol)
sk_ddG_kJ (SKEMPI experimental ΔΔG of binding, mutation to alanine) [2]: 3.64 kJ

1A4Y HB8A
sk_class (class of the SKEMPI experimental ΔΔG) [1, 4]: Neutral (neutral (little effect) 4.184 kJ/mol < ΔΔG > −4.184 kJ/mol)
sk_ddG_kJ (SKEMPI experimental ΔΔG, mutation to alanine) [2, 5]: 3.77 kJ

1A22 YA42A
sk_class (class of the SKEMPI experimental ΔΔG) [1, 6]: Neutral (neutral (little effect) 4.184 kJ/mol < ΔΔG > −4.184 kJ/mol)
sk_ddG_kJ (SKEMPI experimental ΔΔG of binding, mutation to alanine) [2]: 0.84 kJ

B1: 1REW QC86A (protein, UniProt P36894 24-152, looked up, variant Q86A)
extracellular domain: QNLDSMLHGTGMKSDSDQKKSENGVTLAPEDTLPFLKCYCSGHCPDDAINNTCITNGHCFAIIEEDDQGETTLASGCMKYEGSDFACKDSPKAQLRRTIECCRTNLCNQYLQPTLPPVVIGPFFDGSIR
modifications: extracellular domain
sk_ddG_kJ ([2]; PPI given by PDBID): 11.13 kJ
sk_class [2]: Positive (positive (a hot residue) ΔΔG ≥ 4.184 kJ/mol)

B2: 1JRH NI48A (protein, UniProt P15260 18-245, looked up, variant N48A)
extracellular domain: EMGTADLGPSSVPTPTNVTIESYNMNPIVYWEYQIMPQVPVFTVEVKAYGVKNSEWIDACINISHHYCNISDHVGDPSNSLWVRVKARVGQKESAYAKSEEFAVCRDGKIGPPKLDIRKEEKQIMIDIFHPSVFVNGDEQEVDYDPETTCYIRVYNVYVRMNGSEIQYKILTQKEDDCDEIQCQLAIPVSSLNSQYCVSAEGVLHVWGVTTEKSKEVCITIFNSSIKG
modifications: extracellular domain
sk_ddG_kJ ([2]; PPI given by PDBID): 2.64 kJ
sk_class [2]: Neutral (neutral (little effect) 4.184 kJ/mol < ΔΔG > −4.184 kJ/mol)

B3: 1JRH SI54A (protein, UniProt P15260 18-245, looked up, variant S54A)
extracellular domain: B2 extracellular domain with A48N, S54A
modifications: extracellular domain
sk_ddG_kJ ([2]; PPI given by PDBID): 1.92 kJ
sk_class [2]: Neutral (neutral (little effect) 4.184 kJ/mol < ΔΔG > −4.184 kJ/mol)

B4: 1JRH NI53A (protein, UniProt P15260 18-245, looked up, variant N53A)
extracellular domain: B2 extracellular domain with A48N, N53A
modifications: extracellular domain
sk_ddG_kJ ([2]; PPI given by PDBID): 19.71 kJ
sk_class [2]: Positive (positive (a hot residue) ΔΔG ≥ 4.184 kJ/mol)
